Measurements: ChEMBL document CHEMBL1157233, “5,6:8,9-diepoxy and other cytotoxic sterols from the marine sponge Homaxinella sp” (2006)
In brackets after ≈: the same amount, converted by molar mass.

What was measured:
Assay type in all cases: functional
Details in all cases: read-out: ED50 (the source's name)
[1] = tested on: XF498; assay: Cytotoxicity against human XF498 cells
[2] = tested on: SK-MEL-2; assay: Cytotoxicity against human SK-MEL-2 cells
[3] = tested on: HCT-15; assay: Cytotoxicity against human HCT15 cells
[4] = tested on: SK-OV-3; assay: Cytotoxicity against human SKOV3 cells
[5] = tested on: A549; assay: Cytotoxicity against human A549 cells

CC[C@@H](/C=C/[C@@H](C)[C@H]1CC[C@@H]2[C@]1(C)CC[C@@]13O[C@@]21[C@H](O)[C@@H]1O[C@@]12C[C@@H](O)CC[C@]32C)C(C)C (relative stereo) [HOMAXISTEROL B2]
EC50 [1]: 1 µg/mL (≈ 2.18 µM)
EC50 [2]: 1.1 µg/mL (≈ 2.4 µM)
EC50 [3]: 1.1 µg/mL (≈ 2.4 µM)
EC50 [4]: 1.3 µg/mL (≈ 2.83 µM)
EC50 [5]: 1.4 µg/mL (≈ 3.05 µM)

CO[C@@H]1C=C2[C@@H]3CC[C@H]([C@H](C)/C=C/CC(C)C)[C@@]3(C)CC[C@@H]2[C@@]2(C)CC[C@H](O)C[C@]12O
EC50 [1]: 4 µg/mL (≈ 9.29 µM)
EC50 [2]: 3.4 µg/mL (≈ 7.89 µM)
EC50 [3]: 4.2 µg/mL (≈ 9.75 µM)
EC50 [4]: 7.1 µg/mL (≈ 16.5 µM)
EC50 [5]: 4.8 µg/mL (≈ 11.1 µM)

CC(C)C/C=C/[C@@H](C)[C@H]1CC[C@H]2C3=CC(=O)[C@@]4(O)C[C@@H](O)CC[C@]4(C)[C@@]3(O)CC[C@]12C [HOMAXISTEROL C1]
EC50 [1]: 3.7 µg/mL (≈ 8.59 µM)
EC50 [2]: 3.9 µg/mL (≈ 9.06 µM)
EC50 [3]: 3.7 µg/mL (≈ 8.59 µM)
EC50 [4]: 7 µg/mL (≈ 16.3 µM)
EC50 [5]: 5 µg/mL (≈ 11.6 µM)

CC(C)[C@H](C)/C=C/[C@@H](C)[C@H]1CC[C@H]2C3=C[C@@H](O)[C@@]4(O)C[C@@H](O)CC[C@]4(C)[C@H]3CC[C@]12C
EC50 [1]: > 5 µg/mL
EC50 [2]: > 5 µg/mL
EC50 [3]: > 5 µg/mL
EC50 [4]: > 5 µg/mL
EC50 [5]: > 5 µg/mL

CC(C)C/C=C/[C@@H](C)[C@H]1CC[C@H]2C3=C[C@H](O)[C@@]4(O)C[C@@H](O)CC[C@]4(C)[C@H]3CC[C@]12C [HOMAXISTEROL D1]
EC50 [1]: 3.1 µg/mL (≈ 7.44 µM)
EC50 [2]: 3.1 µg/mL (≈ 7.44 µM)
EC50 [3]: 3.1 µg/mL (≈ 7.44 µM)
EC50 [4]: 3.9 µg/mL (≈ 9.36 µM)
EC50 [5]: 3.5 µg/mL (≈ 8.4 µM)

CC[C@@H](/C=C/[C@@H](C)[C@H]1CC[C@H]2C3=C[C@@H](O)[C@@]4(O)C[C@@H](O)CC[C@]4(C)[C@H]3CC[C@]12C)C(C)C
EC50 [1]: > 5 µg/mL
EC50 [2]: > 5 µg/mL
EC50 [3]: > 5 µg/mL
EC50 [4]: > 5 µg/mL
EC50 [5]: > 5 µg/mL

CC(C)C/C=C/[C@@H](C)[C@H]1CC[C@@H]2[C@]1(C)CC[C@@]13O[C@@]21[C@H](O)[C@@H]1O[C@@]12C[C@@H](O)CC[C@]32C [HOMAXISTEROL B1]
EC50 [1]: 3.4 µg/mL (≈ 7.9 µM)
EC50 [2]: 3.1 µg/mL (≈ 7.2 µM)
EC50 [3]: 3.2 µg/mL (≈ 7.43 µM)
EC50 [4]: 3.5 µg/mL (≈ 8.13 µM)
EC50 [5]: 3.9 µg/mL (≈ 9.06 µM)

CC(C)[C@@H](C)/C=C/[C@@H](C)[C@H]1CC[C@H]2C3=C[C@@H](O)[C@@]4(O)C[C@@H](O)CC[C@]4(C)[C@H]3CC[C@]12C [CEREVISTEROL]
EC50 [1]: 3.3 µg/mL (≈ 7.66 µM)
EC50 [2]: 2.8 µg/mL (≈ 6.5 µM)
EC50 [3]: 3 µg/mL (≈ 6.97 µM)
EC50 [4]: 6 µg/mL (≈ 13.9 µM)
EC50 [5]: 3.9 µg/mL (≈ 9.06 µM)

CC(C)C(C)/C=C/[C@@H](C)[C@H]1CC[C@@H]2[C@]1(C)CC[C@@]13O[C@@]21[C@H](O)[C@@H]1O[C@@]12C[C@@H](O)CC[C@]32C (stereo not given in full)
EC50 [1]: 3.4 µg/mL (≈ 7.65 µM)
EC50 [2]: 2.7 µg/mL (≈ 6.07 µM)
EC50 [3]: 4.8 µg/mL (≈ 10.8 µM)
EC50 [4]: 6.3 µg/mL (≈ 14.2 µM)
EC50 [5]: 7.1 µg/mL (≈ 16 µM)

CC[C@@H](/C=C/[C@@H](C)[C@H]1CC[C@H]2C3=C[C@@H](O)[C@@]4(O)C[C@@H](O)CC[C@]4(C)[C@@]3(O)CC[C@]12C)C(C)C
EC50 [1]: > 5 µg/mL
EC50 [2]: > 5 µg/mL
EC50 [3]: > 5 µg/mL
EC50 [4]: > 5 µg/mL
EC50 [5]: > 5 µg/mL

CC(C)C/C=C/[C@@H](C)[C@H]1CC[C@H]2C3=C[C@@H](O)[C@@]4(O)C[C@@H](O)CC[C@]4(C)[C@H]3CC[C@]12C
EC50 [1]: > 5 µg/mL
EC50 [2]: > 5 µg/mL
EC50 [3]: > 5 µg/mL
EC50 [4]: > 5 µg/mL
EC50 [5]: > 5 µg/mL

CC[C@@H](/C=C/[C@@H](C)[C@H]1CC[C@H]2C3=C[C@@H](OC)[C@@]4(O)C[C@@H](O)CC[C@]4(C)[C@H]3CC[C@]12C)C(C)C
EC50 [1]: 3.8 µg/mL (≈ 8.28 µM)
EC50 [2]: 5.2 µg/mL (≈ 11.3 µM)
EC50 [3]: 4.9 µg/mL (≈ 10.7 µM)
EC50 [4]: 7 µg/mL (≈ 15.3 µM)
EC50 [5]: 4.4 µg/mL (≈ 9.59 µM)

CC(C)C/C=C/[C@@H](C)[C@H]1CC[C@H]2C3=C[C@@H](O)[C@@]4(O)C[C@@H](O)CC[C@]4(C)[C@@]3(O)CC[C@]12C
EC50 [1]: > 5 µg/mL
EC50 [2]: > 5 µg/mL
EC50 [3]: > 5 µg/mL
EC50 [4]: > 5 µg/mL
EC50 [5]: > 5 µg/mL

COc1cccc2c1C(=O)c1c(O)c3c(c(O)c1C2=O)C[C@@](O)(C(=O)CO)C[C@@H]3O[C@H]1C[C@H](N)[C@H](O)[C@H](C)O1 (stereo in doubt) [DOXORUBICIN]
EC50 [1]: 0.01 µg/mL (≈ 0.0184 µM)
EC50 [2]: 0.01 µg/mL (≈ 0.0184 µM)
EC50 [3]: 0.05 µg/mL (≈ 0.092 µM)
EC50 [4]: 0.03 µg/mL (≈ 0.0552 µM)
EC50 [5]: 0.01 µg/mL (≈ 0.0184 µM)
